Data set [1] deals with four human cancer cell lines (A-549, MCF-7, Panc-1, HT-29). Nature of the data set: Antiproliferative assay, average over four cancer cell lines. The class given is cell-based. The conditions noted are these: Homo sapiens, average IC50 over the four cancer cell lines.
Data set [2] deals with Panc-1 pancreatic cancer cell line. Description: Antiproliferative assay, Panc-1. It counts as cell-based. The conditions noted are these: Homo sapiens; Panc-1 pancreatic cancer cells; read-out: Antiproliferative activity IC50 ± SEM, Panc-1.
Data set [3] can be described thus: Cell viability assay (MTT) on MCF-10A normal cells. The class given is cell-based. To be noted: human, MCF-10A mammary gland epithelial normal cells, MCF-10A cells, four-day incubation. As for the experimental part:
The impact of compounds 3a–h and 5a–d on cell viability was evaluated using the human mammary (MCF-10A) gland epithelium normal cell line. The MTT assay was used to evaluate the cell viability of 3a–h and 5a–d after a four-day incubation period on MCF-10A cells.[46] Refer to Appendix A for more details.
The effect of new compounds 3a–h and 5a–d on cell viability was evaluated using the MCF-10A (human mammary gland epithelium) normal cell line.
4.2. Biological evaluation
4.2.1 Cell Viability assay (MTT assay)
MTT assay was performed to investigate the effect of the synthesized compounds on mammary epithelial cells (MCF-10A). The cells were propagated in medium consisting of Ham's F-12 medium/ Dulbecco's modified Eagle's medium (DMEM) (1:1) supplemented with 10% foetal calf serum, 2 mM glutamine, insulin (10 μg/mL), hydrocortisone (500 ng/mL) and epidermal growth factor (20 ng/mL). Trypsin ethylenediamine tetra acetic acid (EDTA) was used to passage the cells after every 2-3 days. 96-well flat-bottomed cell culture plates were used to seed the cells at a density of 10^4 cells mL-1. The medium was aspirated from all the wells of culture plates after 24 h followed by the addition of synthesized compounds (in 200 μL medium to yield a final concentration of 0.1% (v/v) dimethyl sulfoxide) into individual wells of the plates. Four wells were designated to a single compound. The plates were allowed to incubate at 37°C for 96 h. Afterwards, the medium was aspirated and 3-[4,5-dimethylthiazol-2-yl]-2,5-diphenyltetrazolium bromide (MTT) (0.4 mg/mL) in medium was added to each well and subsequently incubated for 3 h. The medium was aspirated and 150 μL dimethyl sulfoxide (DMSO) was added to each well. The plates were vortexed followed by the measurement of absorbance at 540 nm on a microplate reader. The results were presented as inhibition (%) of proliferation in contrast to controls comprising 0.1% DMSO.

For data set [4], the system named is A-549 lung cancer cell line. Description: Antiproliferative assay, A-549. The class given is cell-based. The conditions noted are these: Homo sapiens, A549; A-549 lung cancer cells; read-out: Antiproliferative activity IC50 ± SEM, A-549.
In data set [5] the test system is MCF-7 breast cancer cell line. Nature of the data set: Antiproliferative assay, MCF-7. It counts as cell-based. The conditions noted are these: Homo sapiens, MCF7; MCF-7 breast cancer cells; read-out: Antiproliferative activity IC50 ± SEM, MCF-7.
Data set [6] relates to HT-29 colon cancer cell line. Description: Antiproliferative assay, HT-29. It counts as cell-based. The conditions noted are these: Homo sapiens; HT-29 colon cancer cells; read-out: Antiproliferative activity IC50 ± SEM, HT-29.
Data set [7] concerns the target T1, EGFR (Homo sapiens, UniProt P00533). Nature of the data set: EGFR inhibitory assay (EGFR-TK assay).
The next data set concerns the target HER2 (Homo sapiens, UniProt P04626). Nature of the data set: HER2 inhibitory assay (ADP-Glo kinase assay).
Data set [8] deals with four human cancer cell lines. Details: method as in ref 39 = [39]; Mohassab A. M. Hassan H. A. Abou-Zied H. A. Fujita M. Otsuka M. Gomaa H. A. Youssif B. G. Abdel-Aziz M. J. Mol. Struct. 2024 1297 136953. The conditions noted are these: read-out: GI50 against four cancer cell lines; cited from earlier work.
Data set [9] has as its target T1, EGFR. Details: 645–1186; His6 (N); made in house; host or cells: Sf-9 insect cells (baculovirus vectors pBlueBacHis2B / pFASTBacHTc); method as in ref 38 (Makawana et al.). The conditions noted are these: ref 38 (Makawana et al.); cited from earlier work.
The subject of a further data set is Caspase-3. Description: Caspase-3 activation assay in MCF-7 cells. The class given is cell-based, human.
Another data set relates to Bax. Description: Bax activation assay in MCF-7 cells. It counts as cell-based, human. As for the experimental part: This lysate was diluted in Standard Diluent Buffer over the range of the assay and measured for human active caspase-8 content. (Cells are Plated in a density of 1.2 – 1.8 × 10,000 cells/well in a volume of 100µl complete growth medium + 100 ul of the tested compound per well in a 96-well plate for 24 hours before the enzyme assay for […].). […]
4.2.7. Bax activation assay
Bring all reagents, except the human Bax-α Standard, to room temperature for at least 30 minutes prior to opening. The human Bax-α Standard solution should not be left at room temperature for more than 10 minutes. All standards, controls and samples should be run in duplicate. Refer to the Assay Layout Sheet to determine the number of wells to be used and put any remaining wells with the desiccant back into the pouch and seal the ziploc. Store unused wells at 4 °C. Pipet 100 μL of Assay Buffer into the S0 (0 pg/mL standard) wells. Pipet 100 μL of Standards #1 through #6 into the appropriate wells. Pipet 100 μL of the Samples into the appropriate wells. Tap the plate gently to mix the contents. Seal the plate and incubate at room temperature on a plate shaker for 1 hour at ~500 rpm. Empty the contents of the wells and wash by adding 400 μL of wash solution to every well.
Repeat the wash 4 more times for a total of 5 washes. After the final wash, empty or aspirate the wells and firmly tap the plate on a lint free paper towel to remove any remaining wash buffer. Pipet 100 μL of yellow Antibody into each well, except the Blank. Seal the plate and incubate at room temperature on a plate shaker for 1 hour at ~500 rpm. Empty the contents of the wells and wash by adding 400 μL of wash solution to every well. Repeat the wash 4 more times for a total of 5 washes.
After the final wash, empty or aspirate the wells and firmly tap the plate on a lint free paper towel to remove any remaining wash buffer. Add 100 μL of blue Conjugate to each well, except the Blank.
Seal the plate and incubate at room temperature on a plate shaker for 30 minutes at ~500 rpm. Empty the contents of the wells and wash by adding 400 μL of wash solution to every well. Repeat the wash 4 more times for a total of 5 washes. After the final wash, empty or aspirate the wells and firmly tap […]
the plate on a lint free paper towel to remove any remaining wash buffer. Pipet 100 μL of Substrate Solution into each well. Incubate for 30 minutes at room temperature on a plate shaker at ~500 rpm.
Pipet 100 μL Stop Solution to each well. Blank the plate reader against the Blank wells, read the optical density at 450 nm. Calculate the average net Optical Density (OD) bound for each standard and sample by subtracting the average Blank OD from the average OD for each standard and sample.
Using linear graph paper, plot the Average Net OD for each standard versus Bax concentration in each standard. Approximate a straight line through the points. The concentration of Bax in the unknowns can be determined by interpolation. […]
Remove plate cover and empty the wells. […]
Incubate the microwell strips at room temperature (18° to 25°C) for about 15 minutes, if

In another data set the test system is Bcl-2. Description: Bcl-2 inhibition assay in MCF-7 cells. It counts as cell-based, human. The protocol:
Additionally, the treatment led to a notable reduction in anti-apoptotic Bcl-2 expression levels, with a fold decrease of roughly 6 for compound 3e and 8 for compound 5a. Compounds 3e and 5a markedly elevated the Bax/Bcl-2 ratio compared to the control untreated cells. […]
4.2.8. Bcl-2 inhibition assay
Mix all reagents thoroughly without foaming before use. Wash the microwells twice with approximately 300 μL Wash Buffer per well with thorough aspiration of microwell contents between washes. Take caution not to scratch the surface of the microwells. After the last wash, empty the wells and tap microwell strips on absorbent pad or paper towel to remove excess Wash Buffer. Use the microwell strips immediately after washing or place upside down on a wet absorbent paper for not […]
longer than 15 minutes. […] Add 100 μL of Sample Diluent in duplicate to all standard wells and to the blank wells. Prepare standard (1:2 dilution) in duplicate ranging from 32 ng/mL to 0.5 ng/mL. Add 100 μL of Sample Diluent, in duplicate, to the blank wells. Add 80 μL of Sample Diluent, in duplicate, to the sample wells. Add 20 μL of each Sample, in duplicate, to the designated wells. Add 50 μL of diluted biotin-conjugate to all wells, including the blank wells. Cover with a plate cover and incubate at room temperature, on a microplate shaker at 100 rpm if available, for 2 hours. Remove plate cover and empty the wells. Wash microwell strips 3 times as described in step 2. Add 100 μL of diluted Streptavidin-HRP to all wells, including the blank wells. Cover with a plate cover and incubate at room temperature, on a microplate shaker at 100 rpm if available, for 1 hour. Remove plate cover and empty the wells. Wash microwell strips 3 times as described in step 2.
Proceed to the next step. Pipette 100 μl of mixed TMB Substrate Solution to all wells, including the blanks. Incubate the microwell strips at room temperature (18° to 25°C) for about 15 minutes, if available on a rotator set at 100 rpm. Avoid direct exposure to intense light. The point, at which the substrate reaction is stopped, is often determined by the ELISA reader. Many ELISA readers record absorbance only up to 2.0 O.D. Therefore, the color development within individual microwells must be watched by the person running the assay and the substrate reaction stopped before positive wells are no longer properly detectable. Stop the enzyme reaction by quickly pipetting 100 μL of Stop Solution into each well, including the blank wells. It is important that the Stop Solution is spread quickly and uniformly throughout the microwells to completely inactivate the enzyme. Results must be read immediately after the Stop Solution is added or within one hour if the microwell strips are stored at 2 - 8°C in the dark. Read absorbance of each microwell on a spectrophotometer using 450 nm as the primary wavelength.
4.3. Statistical analysis
Computerized Prism 5 program was used to statistically analyzed data using one-way ANOVA test followed by Tukey’s as post ANOVA for multiple comparison at P ≤.05. Data were presented as […]

For the next data set, the system named is Caspase-8. Nature of the data set: Caspase-8 activation assay in MCF-7 cells. The class given is cell-based, human.

Molecules are shown by their SMILES. Where two headings read alike, the source gives them in different places.

The values below come from publication PMC11492426, “Design, synthesis, and biological evaluation of novel quinoline-based EGFR/HER-2 dual-target inhibitors as potential anti-tumor agents” (RSC Advances, 2024).

T1 sequence (P00533 669-1210): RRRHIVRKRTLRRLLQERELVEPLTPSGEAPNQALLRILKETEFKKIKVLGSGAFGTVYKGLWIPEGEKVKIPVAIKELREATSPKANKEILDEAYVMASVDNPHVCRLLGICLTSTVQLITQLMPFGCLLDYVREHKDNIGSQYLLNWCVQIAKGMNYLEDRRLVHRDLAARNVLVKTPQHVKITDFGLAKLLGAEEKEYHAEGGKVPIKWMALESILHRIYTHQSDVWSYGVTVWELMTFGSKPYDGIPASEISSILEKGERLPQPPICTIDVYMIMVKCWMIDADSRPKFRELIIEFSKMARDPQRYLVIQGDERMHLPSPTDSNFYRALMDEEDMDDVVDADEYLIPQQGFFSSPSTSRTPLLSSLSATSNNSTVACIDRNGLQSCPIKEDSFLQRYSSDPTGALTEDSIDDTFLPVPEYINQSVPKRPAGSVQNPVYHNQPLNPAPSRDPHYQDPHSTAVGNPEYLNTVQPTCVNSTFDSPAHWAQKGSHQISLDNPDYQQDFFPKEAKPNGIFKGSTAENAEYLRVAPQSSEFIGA
HER2, sequence (P04626 676-1255 limits assumed): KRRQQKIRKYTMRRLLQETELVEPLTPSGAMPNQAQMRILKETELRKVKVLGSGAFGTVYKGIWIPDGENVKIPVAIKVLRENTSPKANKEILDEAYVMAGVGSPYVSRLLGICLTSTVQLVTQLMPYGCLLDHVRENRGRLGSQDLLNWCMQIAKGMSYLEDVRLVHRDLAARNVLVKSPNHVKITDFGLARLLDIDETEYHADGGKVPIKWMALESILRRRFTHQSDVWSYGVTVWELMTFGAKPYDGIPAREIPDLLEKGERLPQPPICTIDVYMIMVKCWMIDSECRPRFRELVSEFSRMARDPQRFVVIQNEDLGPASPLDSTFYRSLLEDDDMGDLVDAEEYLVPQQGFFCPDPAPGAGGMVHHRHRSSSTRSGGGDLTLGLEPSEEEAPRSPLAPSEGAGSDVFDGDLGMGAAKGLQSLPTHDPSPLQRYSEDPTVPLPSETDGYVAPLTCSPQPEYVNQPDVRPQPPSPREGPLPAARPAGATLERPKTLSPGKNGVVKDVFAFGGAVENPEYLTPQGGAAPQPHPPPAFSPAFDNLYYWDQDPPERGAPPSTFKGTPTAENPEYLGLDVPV

As to `Cn1c(=O)c(/C=N/c2nc(-c3ccncc3)n[nH]2)c(O)c2ccccc21` [Compound 3h, (E)-4-hydroxy-1-methyl-3-(((3-(pyridin-4-yl)-1H-1,2,4-triazol-5-yl)imino)methyl) quinolin-2(1H)-one], the melting point lay in the range of 310 to 312 °C. This compound also displayed a 50% growth inhibitory concentration (GI50) in data set [1] of 82 nM. In addition, the half-maximal inhibitory concentration (IC50) in [2] worked out at 86 ± 8 nM. Further, the viability at 96 h, 50 µM in data set [3] was 85%. Moreover, the IC50 in data set [4] was determined as 82 ± 8 nM. In data set [5], the half-maximal inhibitory concentration (IC50) was 78 ± 7 nM. Also, the IC50 in data set [6] was found to be 82 ± 8 nM.
Consider `Cc1ccc2[nH]c(=O)c(C=Nc3ccc(NS(=O)(=O)c4ncccn4)cc3)c(O)c2c1` [Compound 5b, N-(4-(((4-hydroxy-6-methyl-2-oxo-1,2-dihydroquinolin-3-yl)methylene)amino)phenyl)pyrimidine-2-sulfonamide], for which the IC50 at EGFR [7] is 85 ± 5 nM; in [2] it was 41 ± 4 nM; against HER2 it was 47 ± 3 nM; in data set [4], 39 ± 4 nM; in data set [5], 35 ± 4 nM; in data set [6], 40 ± 3 nM. This compound also registered a 50% growth inhibitory concentration (GI50) in data set [1] of 39 nM. In data set [3], the viability at 96 h, 50 µM is 90%.
The compound `Cn1c(=O)c(C=Nc2ccc(NS(=O)(=O)c3ncccn3)cc2)c(O)c2ccccc21` [Compound 5d, N-(4-(((4-hydroxy-1-methyl-2-oxo-1,2-dihydroquinolin-3-yl)methylene)amino)phenyl)pyrimidine-2-sulfonamide] yielded a melting point of 318 to 320 °C. In addition, the midpoint of inhibition on EGFR [7], the IC50, lay at 93 ± 5 nM. In [1], this compound gave a concentration for 50% growth inhibition (GI50) of 46 nM. The IC50 in [2] worked out at 48 ± 4 nM. The compound also came in with a 50% inhibitory concentration (IC50) at HER2 of 53 ± 3 nM. Also, the viability at 96 h, 50 µM in data set [3] worked out at 90%. In data set [4], the half-inhibitory concentration (IC50) was determined as 46 ± 4 nM. Besides, in [5], the IC50 was 42 ± 4 nM. Also, the IC50 in data set [6] was determined as 48 ± 4 nM.
Turning to `CC(=NO)c1ccc(NC(=O)c2cc(-c3ccc(S(C)(=O)=O)cc3)nc3ccccc23)cc1` [Compound VIII], the 50% growth inhibitory concentration (GI50) in data set [8] is 1200 nM.
On to `COc1ccc(Oc2nc3ccc(C)cc3cc2/C=N/NC(=O)Cn2cc([N+](=O)[O-])nc2C)cc1` [Compound VII], for which, on EGFR [9], the half-inhibitory concentration (IC50) is 120 ± 50 nM.
Take `CN[C@@H]1C[C@H]2O[C@@](C)([C@@H]1OC)n1c3ccccc3c3c4c(c5c6ccccc6n2c5c31)C(=O)NC4` [Staurosporine, reference compound]: the “Caspase-3 Conc.” value in the data set with Caspase-3 (treated at IC50 concentration) came out at 465 ± 4 pg/mL. Besides, the “Caspase-3 Fold change” value in the data set with Caspase-3 (versus untreated control) came out at 7. The “Bax Conc.” value in the data set on Bax (treated at IC50 values) was found to be 288 ± 2 pg/mL. In the data set with Bax (versus untreated control), the “Bax Fold change” value was 32. In addition, the “Bcl-2 Conc.” value with Bcl-2 (treated at IC50 values) came out at 1.00 ng/mL. Further, in the data set on Bcl-2 (versus untreated control), the “Bcl-2 Fold reduction” value amounted to 5. Also, the “Caspase-8 Conc.” value in the data set on Caspase-8 (treated at IC50 concentration) was 1.60 ± 0.10 ng/mL. The “Caspase-8 Fold change” value with Caspase-8 (versus untreated control) is recorded as 18.
Regarding `COc1cccc2c1C(=O)c1c(O)c3c(c(O)c1C2=O)C[C@@](O)(C(=O)CO)C[C@@H]3O[C@H]1C[C@H](N)[C@H](O)[C@H](C)O1` [doxorubicin], the GI50 in data set [8] was 1400 nM.
